Laboratory results from a melting point compilation (Tetko et al.; mined from patent text by program, amines drawn as free bases though some values may be those of a salt).

melting point [°C]	SMILES
242 to 243	O=c1ccsc2c1[nH]c1ccccc12
190 to 193	CCCc1cc(-c2nc(-c3ccc(C)cc3)cs2)ccn1
106 to 108	CCc1c(C(C)C)cc(C(C)C)c(CO)c1-c1ccc(F)cc1
253 to 255	O=c1c2c(c3cccnc3n1-c1ccccc1)OCCC2
198 to 200	COc1ccccc1Sc1ccccc1C(=O)O
214	NC(=O)Nc1cccc2c1C(=O)c1c-2n[nH]c1-c1cccs1
212 to 214	O=C1c2ccccc2C(=O)N1CCCn1c2ccccc2c2nc3ccccc3nc21
144 to 146	CCN1CC(=O)N(c2ccc(Cl)cc2Cl)C1=S
> 250	Cn1cc(-c2ccnnc2)ccc1=O
75 to 77	O=C1c2ccccc2C(=O)N1CCCCn1ccnc1
103	Cc1ccc(S(=O)(=O)N2CCCC2c2ccc(Cl)c(C)c2)cc1 (racemic)
239 to 240	N#Cc1ccsc1C1=CC(=O)Nc2cc(-c3ccc(F)cc3)ccc2N1
122 to 124	Cc1ccc2c(c1)SC1(CCOC1=O)C2=O (stereo not drawn)

More lines, now with the values behind:

SMILES	melting point [°C]
NC(=O)c1sc2ncnc(-c3cc4c(c(OCc5ccccc5)c3)CCO4)c2c1N	239
O=C(Nc1ccccc1)N1CCC(C(Nc2ccc(F)cc2)c2ccc(F)cc2)CC1 (stereo not drawn)	96 to 101
COc1cc2c(c(Cl)c1Cl)S(=O)(=O)C(c1ccccc1)=C2C	197 to 199
O=C1CC2O/C(=C/C3(C(=O)OCc4ccccc4)C=CC=CC3)CN12 (stereo not drawn)	120 to 121
CCc1nc2c(cnn2CC)c(NC2CCOCC2)c1CNC(=O)c1cccc(C(=O)NCc2ccc(C)c(-c3cccc(C=O)c3)c2)c1	114 to 117
COc1ccccc1-c1ccc(C(=O)N2Cc3ccc(C(=O)NCCc4ccc(O)cc4)n3Cc3ccccc32)cc1C	138 to 147
COc1cc(N)c(Cl)cc1C(=O)NCC1CCN(CCC(=O)c2ccc(O)cc2)CC1	191 to 193
CC(C)(C)c1csc(-c2cc3cc(CC(C(=O)O)C(=O)O)ccc3o2)n1	> 320
COC(=O)c1cc2c(cnn2C)nc1C(=O)OC	148 to 149
C=CCOc1ccccc1OCCOS(C)(=O)=O	61 to 63
O=S(=O)(N[C@H](CO)[C@@H](c1cc(F)cc(F)c1)C(F)(F)F)c1ccc(Cl)s1	126
COC(=O)NNC(=S)Cc1cccc(C(F)(F)F)c1	131 to 132
CC1Cc2c(nc3ccc(F)cc3c2C(=O)O)-c2ccc(-c3ccccc3F)cc21 (stereo not drawn)	274 to 277
CC(C)(C)OC(=O)NC(=Cc1ncoc1C(C)(C)C)C(=O)OC(C)(C)C	170 to 172
CN(C)CCSc1cc(NC(=O)OC(C)(C)C)c(NC(=O)CC(=O)c2cccc(C#N)c2)cc1C#Cc1ccccc1	88
COC(=O)Cc1cccc(NCCCBr)c1	129 to 130
C=COC(=O)C1=Cc2cc(Cl)cc(C=C)c2OC1C(F)(F)F (stereo not drawn)	75.9 to 77.2
Cc1nc(N(C)C)sc1C(=O)c1ccc(N)c(N)c1	174 to 178
N#CCc1ccccc1-c1ccc(C(=O)N2Cc3ccc(C(=O)NCc4cccnc4)n3Cc3ccccc32)cc1	105 to 108
O=C(O)c1cn(-c2cc([N+](=O)[O-])c(F)cc2F)c2cc(F)c(F)cc2c1=O	> 270
CC(C)n1c(=O)n(C)c(=O)c2c(S(=O)CCCO)n(Cc3cccc4ccccc34)cc21 (stereo not drawn)	184 to 185
Cc1ccc(NCc2ccc(C(=O)Nc3ccccc3N)cc2)cc1Nc1nccc(-c2cccnc2)n1	112 to 120
O=C(C=Cc1ccc(O)c([N+](=O)[O-])c1)NC12CC3CC(CC(C3)C1)C2	162 to 163
CCc1cc(CCNc2ncnc3c(F)ccc(F)c23)ccc1Oc1cc(C(F)(F)F)ccn1	121 to 122
CCNC(=O)c1c([Si](C)(C)C)sc2c1CCCC2	107 to 112
